Source: patent US6448251B1, “Zwitterionic-fatty acid compounds having anti-inflammatory properties” (priority 1997, dated 2002)
Like-named read-outs stand apart in the source and are kept apart here.

Legend:
[1] = system: erythema induced by the capsaicin; assay: Protocol II dermal irritation: capsaicin-induced erythema on human forearm, infra-red reflection; format: in vivo; details: 0.1% capsaicin on forearm of human volunteer; candidate applied when erythema appeared 10-15 minutes later; optical reflection at 818 nanometers measured 30 minutes later; baseline control 3.5, capsaicin only 0.5
Description: A new screening method was developed to make rapid assessments on the anti-inflammatory action of the new candidates. The procedure involved the use of a natural irritant, capsaicin*, which candidate is derived from crushed hot peppers (capsicum), and measuring the amount of erythema reduction by the test candidates. Inflammatory reaction are characterzed by pain and tenderness associated with swelling and redness. Most of these clinical signs are attributed to the large influx of blood into the area. Vaso-constricting agents can reduce the amount of swelling and erythema. Hydrocortisone is, in fact, assayed by its ability to blanch the skin, which is a vasoconstrictive effect. Applying a solution of 0.1% of capsaicin to the forearm of a human volunteer will produce an erythema in less than 20 minutes, usually under five minutes. The degree of erythema is measured with an infra-red detector. An infra-red beam of light at 818 nanometers is directed into the skin over the test sie and the amount of infra-red returned to the surface by reflection indicates the amount absorbed in the skin. An untreated skin area is used as a baseline control, a capsaicin treated area is used as the negative control, and a capsaicin+hydrocortisone (a known vasoconstrictor) serves as the positive control. A positive effect means the erythema induced by the capsaicin is reduced, or is eliminated, as measured by the infra-red detector. The following reults were obtained with this evaluative protocol. The capsaicin was applied to the skin, and when erythema appeared 10-15 minutes later, the test candidate agent was applied, and the optical reflection measurements were made 30 minutes later.

inflammation = details: cited from earlier work
[2] = intravenous injection, radiolabelled; cited from earlier work

Compound | Millivolts (reflection voltage) [1] | clearance [2] | further results
HEPES oleate, sodium salt [Compound I] | 3.7 Millivolts |  | 
C[C@]12CCC(=O)C=C1CC[C@@H]1[C@@H]2[C@@H](O)C[C@@]2(C)[C@H]1CC[C@]2(O)C(=O)CO [Hydrocortisone] | 5.0 Millivolts |  | 
CCCCCC=CCC=CCCCCCCCC(=O)OCCN1CCN(CCS(=O)(=O)O)CC1 [Compound V, Hepes-Linoleate Ester] | 3.8 Millivolts |  | 
CC(=O)OCCN1CCN(CCS(=O)(=O)[O-])CC1.[Na+] [Compound VI, Hepes-Acetate Ester] | 3.0 Millivolts |  | 
O=S(=O)(O)CCN1CCN(CCO)CC1 [HEPES, 4-(2-Hydroxyethyl)-1-piperazine-ethanesulfonic acid] |  | rapid clearance | anti-inflammatory effects compared with taurine (inflammation; HEPES sodium salt and the acid, Mahon et al): greater anti-inflammatory effects; half-life compared with taurine [2]: significantly longer half-life
NCCS(=O)(=O)O [taurine, 2-amino ethanesulfonic acid] |  | rapid clearance | anti-inflammatory activity (inflammation; administered centrally): demonstrated anti-inflammatory activity; anti-inflammatory activity (inflammation; administered subcutaneously or interperitoneally): not
